Test results published in patent publication US20230102554A1 (GB002, INC., priority 2019, published 2023).

How the values were obtained:
[1] = target: T1, Human PDGFRα, cytoplasmic domain (GST-PDGFRα) (Homo sapiens, UniProt P16234); experiment: Human PDGFRα biochemical inhibition assay (off-chip Mobility Shift Assay)
T1 construct: made in house

[2] = target: T2, Human PDGFRβ, cytoplasmic domain (GST-PDGFRβ) (Homo sapiens, UniProt P09619); experiment: Human PDGFRβ biochemical inhibition assay (off-chip Mobility Shift Assay)
T2 construct: made in house
Procedure, shortened: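 GST-tagged cytoplasmic domain (aa 557-1106) from baculovirus was incubated 1 h at room temperature with compound, CSKtide, ATP at Km and Mg²⁺ in HEPES buffer, pH 7.5. Phosphorylated and unphosphorylated peptide were separated by off-chip mobility shift, and the product ratio P/(P+S) gave percent inhibition.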

T1 sequence (P16234 550-1089 T674I): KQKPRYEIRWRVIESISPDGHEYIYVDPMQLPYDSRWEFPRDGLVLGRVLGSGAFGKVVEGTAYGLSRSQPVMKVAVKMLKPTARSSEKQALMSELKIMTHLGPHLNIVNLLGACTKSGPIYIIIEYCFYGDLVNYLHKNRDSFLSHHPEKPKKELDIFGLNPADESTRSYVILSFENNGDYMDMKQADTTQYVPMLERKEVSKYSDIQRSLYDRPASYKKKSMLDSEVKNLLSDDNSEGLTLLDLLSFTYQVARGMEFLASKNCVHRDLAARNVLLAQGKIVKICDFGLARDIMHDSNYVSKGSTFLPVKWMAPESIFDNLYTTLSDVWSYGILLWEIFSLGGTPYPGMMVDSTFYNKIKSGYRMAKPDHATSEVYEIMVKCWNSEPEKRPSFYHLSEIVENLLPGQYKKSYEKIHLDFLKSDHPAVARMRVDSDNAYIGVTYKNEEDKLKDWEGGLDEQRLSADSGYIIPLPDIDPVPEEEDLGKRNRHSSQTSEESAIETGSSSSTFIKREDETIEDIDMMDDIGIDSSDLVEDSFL
T2 sequence (P09619 with tags, fused parts or gaps): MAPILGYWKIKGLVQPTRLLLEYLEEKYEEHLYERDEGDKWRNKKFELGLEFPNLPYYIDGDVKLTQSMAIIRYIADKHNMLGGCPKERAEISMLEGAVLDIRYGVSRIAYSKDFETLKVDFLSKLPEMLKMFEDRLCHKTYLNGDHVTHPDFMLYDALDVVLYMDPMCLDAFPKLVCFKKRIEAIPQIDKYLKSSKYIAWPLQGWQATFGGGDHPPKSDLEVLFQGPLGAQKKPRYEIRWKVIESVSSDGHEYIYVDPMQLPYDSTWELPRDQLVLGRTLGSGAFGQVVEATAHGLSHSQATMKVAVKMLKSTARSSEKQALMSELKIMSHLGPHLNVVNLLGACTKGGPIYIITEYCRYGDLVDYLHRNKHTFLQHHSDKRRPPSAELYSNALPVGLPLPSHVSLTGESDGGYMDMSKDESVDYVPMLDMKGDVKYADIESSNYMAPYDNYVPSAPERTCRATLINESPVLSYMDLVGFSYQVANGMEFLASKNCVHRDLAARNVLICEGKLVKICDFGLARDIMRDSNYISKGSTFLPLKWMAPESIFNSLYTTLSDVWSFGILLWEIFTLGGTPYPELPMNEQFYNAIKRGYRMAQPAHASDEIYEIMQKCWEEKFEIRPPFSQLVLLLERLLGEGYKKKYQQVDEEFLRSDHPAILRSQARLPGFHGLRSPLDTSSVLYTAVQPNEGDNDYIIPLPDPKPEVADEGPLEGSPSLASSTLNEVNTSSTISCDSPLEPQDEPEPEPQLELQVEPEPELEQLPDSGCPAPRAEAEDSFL

SMILES | IC50 [1] | IC50 [2]
CCn1cc2ncc(N[C@@H](C)c3cc(NC(=O)c4cc(C)c(CN5CCN(C)CC5)c(F)c4)ccc3C)nc2n1 [Compound 528, (S)-N-(3-(1-((2-ethyl-2H-pyrazolo[3,4-b]pyrazin-6-yl)amino)ethyl)-4-methylphenyl)-3-fluoro-5-methyl-4-((4-methylpiperazin-1-yl)methyl) benzamide] | < 300 nM | < 300 nM
CCn1cc2ncc(N[C@@H](C)c3cc(NC(=O)c4cnc(N5CCN(C)CC5)c(Cl)c4)ccc3F)nc2n1 [Compound 456, (S)-5-chloro-N-(3-(1-((2-ethyl-2H-pyrazolo[3,4-b]pyrazin-6-yl)amino)ethyl)-4-fluorophenyl)-6-(4-methylpiperazin-1-yl) nicotinamide] | < 300 nM | < 300 nM
CCc1cncc(C(=O)Nc2cccc([C@H](C)Nc3cnc4cnn(C)c4n3)c2)c1 [Compound 101] | < 300 nM | < 300 nM
CCn1cc2ncc(N[C@@H](C)c3cc(NC(=O)Cc4ccc(C(C)C)cn4)ccc3C)nc2n1 [Compound 710, (S)-N-(3-(1-((2-ethyl-2H-pyrazolo[3,4-b]pyrazin-6-yl)amino)ethyl)-4-methylphenyl)-2-(5-isopropylpyridin-2-yl) acetamide] | < 300 nM | ≥ 1000 nM
CCn1cc2ncc(N[C@@H](C)c3cccc(NC(=O)c4ccc(C5CC5)nc4)c3)nc2n1 [Compound 283, (S)-6-cyclopropyl-N-(3-(1-((2-ethyl-2H-pyrazolo[3,4-b]pyrazin-6-yl)amino)ethyl)phenyl)nicotinamide] | < 300 nM | < 300 nM
C[C@H](Nc1cnc2cnn(C)c2n1)c1cccc(NC(=O)c2cncc(C(C)(C)O)c2)c1 [Compound 107, (S)-5-(2-hydroxypropan-2-yl)-N-(3-(1-((1-methyl-1H-pyrazolo[3,4-b]pyrazin-6-yl)amino)ethyl)phenyl) nicotinamide] | < 300 nM | < 300 nM
Cc1cc(C(=O)Nc2cccc([C@H](C)Nc3cnc4cnn(C)c4n3)c2)cnc1OCC(C)C [Compound 229, (S)-6-isobutoxy-5-methyl-N-(3-(1-((1-methyl-1H-pyrazolo[3,4-b]pyrazin-6-yl)amino)ethyl)phenyl)nicotinamide] | < 300 nM | < 300 nM
C[C@H](Nc1cnc2[nH]cc(-c3cnn(C)c3)c2n1)c1cccc(NC(=O)c2cc(C(F)(F)F)nn2C)c1 [Compound 584, (S)-1-methyl-N-(3-(1-((7-(1-methyl-1H-pyrazol-4-yl)-5H-pyrrolo[2,3-b]pyrazin-2-yl)amino)ethyl)phenyl)-3-(trifluoromethyl)-1H-pyrazole-5-carboxamide] | 300 to 1000 nM | 300 to 1000 nM
CCNc1ncc(C(=O)Nc2cccc([C@H](C)Nc3cnc4cn(CC)nc4n3)c2)s1 [Compound 364, (S)-N-(3-(1-((2-ethyl-2H-pyrazolo[3,4-b]pyrazin-6-yl)amino)ethyl)phenyl)-2-(ethylamino)thiazole-5-carboxamide] | < 300 nM | 300 to 1000 nM
CCn1cc2ncc(N[C@@H](C)c3cccc(NC(=O)c4ccoc4)c3)nc2n1 [Compound 368, (S)-N-(3-(1-((2-ethyl-2H-pyrazolo[3,4-b]pyrazin-6-yl)amino)ethyl)phenyl)furan-3-carboxamide] | ≥ 1000 nM | ≥ 1000 nM
Cc1cncc(C(=O)Nc2cccc([C@H](C)Nc3cnc4cccnc4n3)c2)c1 [Compound 5, (S)-5-methyl-N-(3-(1-(pyrido[2,3-b]pyrazin-3-ylamino)ethyl)phenyl) nicotinamide] | < 300 nM | 300 to 1000 nM
CC(C)n1cc(C(=O)Nc2cccc([C@H](C)Nc3cnc4cn[nH]c4n3)c2)cn1 [Compound 100, (S)-N-(3-(1-((1H-pyrazolo[3,4-b]pyrazin-6-yl)amino)ethyl)phenyl)-1-isopropyl-1H-pyrazole-4-carboxamide] | < 300 nM | < 300 nM
CCn1cc2ncc(N[C@@H](C)c3cccc(NC(=O)c4cnc(N5CCOCC5)c(C)c4)c3)nc2n1 [Compound 358, (S)-N-(3-(1-((2-ethyl-2H-pyrazolo[3,4-b]pyrazin-6-yl)amino)ethyl)phenyl)-5-methyl-6-morpholinonicotinamide] | < 300 nM | < 300 nM
CCn1cc2ncc(N[C@@H](C)c3cccc(NC(=O)c4ccc(CN5CCN(C)CC5)nc4)c3)nc2n1 [Compound 387, (S)-N-(3-(1-((2-ethyl-2H-pyrazolo[3,4-b]pyrazin-6-yl)amino)ethyl)phenyl)-6-((4-methylpiperazin-1-yl)methyl) nicotinamide] | < 300 nM | ≥ 1000 nM

Further lines, results first:

IC50 [1] | IC50 [2] | SMILES
< 300 nM | ≥ 1000 nM | CCn1cc2ncc(N[C@@H](C)c3cccc(NC(=O)Cc4ccc(C(F)(F)F)c(F)c4)c3)nc2n1 [Compound 628, (S)-N-(3-(1-((2-ethyl-2H-pyrazolo[3,4-b]pyrazin-6-yl)amino)ethyl)phenyl)-2-(3-fluoro-4-(trifluoromethyl)phenyl)acetamide]
< 300 nM | < 300 nM | CCn1cc2ncc(N[C@@H](C)c3cc(NC(=O)Cc4cncc(F)c4)ccc3C)nc2n1 [Compound 659, (S)-N-(3-(1-((2-ethyl-2H-pyrazolo[3,4-b]pyrazin-6-yl)amino)ethyl)-4-methylphenyl)-2-(5-fluoropyridin-3-yl) acetamide]
< 300 nM | < 300 nM | Cc1n[nH]c2ncc(N[C@@H](C)c3cccc(NC(=O)c4ccc(C(F)F)s4)c3)nc12 [Compound 539, (S)-5-(difluoromethyl)-N-(3-(1-((3-methyl-1H-pyrazolo[3,4-b]pyrazin-5-yl)amino)ethyl)phenyl)thiophene-2-carboxamide]
300 to 1000 nM | ≥ 1000 nM | CCn1cc2ncc(N[C@@H](C)c3cccc(NC(=O)c4ccc(N5CCNCC5)nc4)c3)nc2n1 [Compound 397, (S)-N-(3-(1-((2-ethyl-2H-pyrazolo[3,4-b]pyrazin-6-yl)amino)ethyl)phenyl)-6-(piperazin-1-yl)nicotinamide]
300 to 1000 nM | ≥ 1000 nM | CCn1cc2ncc(N[C@@H](C)c3cccc(NC(=O)c4ccc(N5CCOCC5)nc4)c3)nc2n1 [Compound 372, (S)-N-(3-(1-((2-ethyl-2H-pyrazolo[3,4-b]pyrazin-6-yl)amino)ethyl)phenyl)-6-morpholinonicotinamide]
< 300 nM | < 300 nM | CCn1cc2ncc(N[C@@H](C)c3cccc(NC(=O)c4ccc(OC(C)C)nc4)c3)nc2n1 [Compound 287, (S)-N-(3-(1-((2-ethyl-2H-pyrazolo[3,4-b]pyrazin-6-yl)amino)ethyl)phenyl)-6-isopropoxynicotinamide]
< 300 nM | < 300 nM | C[C@H](Nc1cnc2cnn(C)c2n1)c1cccc(NC(=O)c2cccc(S(C)(=O)=O)c2)c1 [Compound 226, (S)-N-(3-(1-((1-methyl-1H-pyrazolo[3,4-b]pyrazin-6-yl)amino)ethyl)phenyl)-3-(methylsulfonyl)benzamide]
< 300 nM | < 300 nM | Cc1cncc(C(=O)Nc2cccc([C@H](C)Nc3cnc4ccn(C)c4n3)c2)c1 [Compound 1, (S)-5-methyl-N-(3-(1-((5-methyl-5H-pyrrolo[2,3-b]pyrazin-3-yl)amino)ethyl)phenyl)nicotinamide]
< 300 nM | < 300 nM | CCn1cc2ncc(N[C@@H](C)c3cccc(NC(=O)c4ccc(CN5CCN(C6CC6)CC5)c(C)c4)c3)nc2n1 [Compound 462, (S)-4-((4-cyclopropylpiperazin-1-yl)methyl)-N-(3-(1-((2-ethyl-2H-pyrazolo[3,4-b]pyrazin-6-yl)amino)ethyl)phenyl)-3-methylbenzamide]
< 300 nM | < 300 nM | C[C@H](Nc1cnc2cnn(C)c2n1)c1cccc(NC(=O)c2cnn(C3CC3)c2)c1 [Compound 150, (S)-1-cyclopropyl-N-(3-(1-((1-methyl-1H-pyrazolo[3,4-b]pyrazin-6-yl)amino)ethyl)phenyl)-1H-pyrazole-4-carboxamide]
< 300 nM | < 300 nM | Cc1c[nH]c2ncc(N[C@@H](C)c3cccc(NC(=O)c4cnn(C5CC5)c4)c3)nc12 [Compound 573, (s)-1-cyclopropyl-N-(3-(1-((7-methyl-5H-pyrrolo[2,3-b]pyrazin-2-yl)amino)ethyl)phenyl)-1H-pyrazole-4-carboxamide]
< 300 nM | < 300 nM | Cc1cc(C(=O)Nc2cccc([C@H](C)Nc3cnc4cnn(C)c4n3)c2)ccc1C(=O)OCc1oc(=O)oc1C [Compound 267, (5-methyl-2-oxo-1,3-dioxol-4-yl)methyl (S)-2-methyl-4-((3-(1-((1-methyl-1H-pyrazolo[3,4-b]pyrazin-6-yl)amino)ethyl)phenyl)carbamoyl)benzoate]
< 300 nM | < 300 nM | Cc1cc2ncc(N[C@@H](C)c3cc(NC(=O)c4ccc(C(F)(F)F)nc4)ccc3F)nc2o1 [Compound 614, (S)-N-(4-fluoro-3-(1-((6-methylfuro[2,3-b]pyrazin-3-yl)amino)ethyl)phenyl)-6-(trifluoromethyl)nicotinamide]
< 300 nM | < 300 nM | CCn1cc2ncc(N[C@@H](C)c3cc(NC(=O)Cc4cc(Cl)ccn4)ccc3C)nc2n1 [Compound 677, (6)-2-(4-chloropyridin-2-yl)-N-(3-(1-((2-ethyl-2H-pyrazolo[3,4-b]pyrazin-6-yl)amino)ethyl)-4-methylphenyl)acetamide]
< 300 nM | < 300 nM | C[C@H](Nc1cnc2cnn(C)c2n1)c1cccc(NC(=O)c2ccc(C(F)(F)F)nc2)c1 [Compound 115, (S)-N-(3-(1-((1-methyl-1H-pyrazolo[3,4-b]pyrazin-6-yl)amino)ethyl)phenyl)-6-(trifluoromethyl)nicotinamide]
< 300 nM | < 300 nM | CCn1cc2ncc(N[C@@H](C)c3cc(NC(=O)c4cnc(OC)c(C)c4)ccc3F)nc2n1 [Compound 317, (S)-N-(3-(1-((2-ethyl-2H-pyrazolo[3,4-b]pyrazin-6-yl)amino)ethyl)-4-fluorophenyl)-6-methoxy-5-methylnicotinamide]
